Read-outs that look alike come from different tables or passages of the source.
How the values were obtained:
[1] = target: soluble human BACE1 catalytic domain (Homo sapiens (Human), UniProt P56817); experiment: BACE1 HTRF FRET Assay; type: biochemical; details: Ki calculated from IC50 with Cheng-Prusoff equation;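 further: cleavage of a quenched APP Swedish mutant peptide (QSY7 quencher, Europium donor) measured as rise in 620 nm fluorescence after 1.5 h at 30 °C, inhibition suppresses signal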
[2] = target: BACE1 (Aβ40 in HEK293-APPswe/lon cells) (Homo sapiens (Human), UniProt P56817); experiment: BACE Inhibitor Whole Cell IC50 Determination Using HEK293-APPswe/lon Cells (Aβ40); type: cell-based; details: 4 hours
[3] = target: CYP2D6 (Homo sapiens (Human), UniProt P10635); experiment: CYP Inhibition Assay, CYP2D6; type: in vitro ADME; details: human liver microsomes
[4] = target: CYP3A4 (Homo sapiens (Human), UniProt P08684); experiment: CYP Inhibition Assay, CYP3A4; type: in vitro ADME; details: human liver microsomes;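 further: CYP probe substrate held near its Km, inhibition judged from metabolite formation quantified by LC-MS/MS against a standard curve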
[5] = target: CYP2C9 (Homo sapiens (Human), UniProt P11712); experiment: CYP Inhibition Assay, CYP2C9; type: in vitro ADME; details: human liver microsomes;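 further: probe substrate held close to its Km, with metabolite formation quantified by LC-MS/MS against a calibration curve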
[6] = target: T1, hERG (Homo sapiens (Human), UniProt Q12809); experiment: hERG screening, Rubidium Efflux (hERG-CHO cells); type: cell-based; details: CHO cells expressing hERG; for inhibition at 30 min, 1.5 uG/mL: pH 7.4, 1.5 uG/mL, read-out: HERG Rb efflux % Inhib 1.5 uG/mL; for inhibition at 30 min, 5 uG/mL: pH 7.4, 5 uG/mL, read-out: HERG Rb efflux % Inhib 5 uG/mL
[7] = target: human liver Cathepsin D (Homo sapiens (Human), UniProt P07339); experiment: Human Cathepsin D FRET Assay; type: biochemical; details: selectivity with respect to Cathepsin D vs BACE1
[8] = target: T1, hERG; experiment: hERG screening, IonWorks Quattro (hERG L929 cells); type: cell-based; details: L929 cells expressing hERG; for inhibition at 5 min, 1 uM: read-out: HERG Ionworks % Inhib 1 uM; for inhibition at 5 min, 10 uM: read-out: HERG Ionworks % Inhib 10 uM
[9] = 30 min pre-incubation with NADPH, read-out: CYP 2D6 IC50 pre
[10] = co-incubation, read-out: CYP 2D6 IC50 co
[11] = 30 min pre-incubation with NADPH, read-out: CYP 3A4 IC50 pre
[12] = co-incubation, read-out: CYP 3A4 IC50 co
[13] = 30 min pre-incubation with NADPH, read-out: CYP 2C9 IC50 pre
[14] = co-incubation, read-out: CYP 2C9 IC50 co

T1 sequence (Q12809 whole entry): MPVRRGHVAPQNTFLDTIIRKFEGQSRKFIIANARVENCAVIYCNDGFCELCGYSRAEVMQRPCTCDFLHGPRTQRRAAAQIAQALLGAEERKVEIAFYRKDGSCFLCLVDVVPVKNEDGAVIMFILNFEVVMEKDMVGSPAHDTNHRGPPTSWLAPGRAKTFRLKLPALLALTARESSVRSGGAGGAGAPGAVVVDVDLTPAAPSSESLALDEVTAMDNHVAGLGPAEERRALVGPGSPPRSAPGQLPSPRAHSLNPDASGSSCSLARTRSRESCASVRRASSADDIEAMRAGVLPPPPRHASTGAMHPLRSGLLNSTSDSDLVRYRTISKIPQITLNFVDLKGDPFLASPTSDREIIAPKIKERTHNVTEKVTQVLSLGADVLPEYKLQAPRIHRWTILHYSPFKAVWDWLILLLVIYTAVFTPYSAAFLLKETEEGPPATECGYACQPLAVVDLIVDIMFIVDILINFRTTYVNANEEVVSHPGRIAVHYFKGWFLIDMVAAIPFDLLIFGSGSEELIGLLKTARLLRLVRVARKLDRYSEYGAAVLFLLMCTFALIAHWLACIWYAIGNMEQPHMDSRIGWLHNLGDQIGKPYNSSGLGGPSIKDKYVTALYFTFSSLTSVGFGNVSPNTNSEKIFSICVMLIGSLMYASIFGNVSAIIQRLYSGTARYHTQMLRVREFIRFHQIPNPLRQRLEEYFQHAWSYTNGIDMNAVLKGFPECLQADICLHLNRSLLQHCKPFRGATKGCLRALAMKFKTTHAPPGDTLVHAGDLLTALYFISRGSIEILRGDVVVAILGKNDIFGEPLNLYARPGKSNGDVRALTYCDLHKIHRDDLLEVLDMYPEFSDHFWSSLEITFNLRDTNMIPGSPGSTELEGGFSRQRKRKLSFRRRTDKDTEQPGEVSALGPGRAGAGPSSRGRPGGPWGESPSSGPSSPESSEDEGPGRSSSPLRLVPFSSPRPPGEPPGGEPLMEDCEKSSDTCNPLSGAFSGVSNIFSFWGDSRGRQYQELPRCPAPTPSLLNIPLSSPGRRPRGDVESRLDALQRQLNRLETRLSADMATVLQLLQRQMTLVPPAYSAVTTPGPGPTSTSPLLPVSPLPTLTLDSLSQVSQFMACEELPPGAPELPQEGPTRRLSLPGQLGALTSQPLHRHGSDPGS
CYP3A4, sequence (P08684 whole entry): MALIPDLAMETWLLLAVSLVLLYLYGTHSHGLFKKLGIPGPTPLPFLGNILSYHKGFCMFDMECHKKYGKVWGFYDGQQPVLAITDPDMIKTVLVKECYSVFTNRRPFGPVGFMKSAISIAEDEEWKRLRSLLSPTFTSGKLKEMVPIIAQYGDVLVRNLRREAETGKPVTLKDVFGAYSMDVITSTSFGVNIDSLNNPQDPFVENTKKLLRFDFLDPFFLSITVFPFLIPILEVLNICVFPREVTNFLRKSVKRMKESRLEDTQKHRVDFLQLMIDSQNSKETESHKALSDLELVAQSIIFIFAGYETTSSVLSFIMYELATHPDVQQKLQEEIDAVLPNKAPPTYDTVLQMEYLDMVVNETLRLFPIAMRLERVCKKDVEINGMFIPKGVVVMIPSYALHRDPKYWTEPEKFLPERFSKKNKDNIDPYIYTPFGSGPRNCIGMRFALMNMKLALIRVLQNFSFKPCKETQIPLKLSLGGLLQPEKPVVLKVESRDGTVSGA
BACE1 (Aβ40 in HEK293-APPswe/lon cells), sequence (P56817 46-501): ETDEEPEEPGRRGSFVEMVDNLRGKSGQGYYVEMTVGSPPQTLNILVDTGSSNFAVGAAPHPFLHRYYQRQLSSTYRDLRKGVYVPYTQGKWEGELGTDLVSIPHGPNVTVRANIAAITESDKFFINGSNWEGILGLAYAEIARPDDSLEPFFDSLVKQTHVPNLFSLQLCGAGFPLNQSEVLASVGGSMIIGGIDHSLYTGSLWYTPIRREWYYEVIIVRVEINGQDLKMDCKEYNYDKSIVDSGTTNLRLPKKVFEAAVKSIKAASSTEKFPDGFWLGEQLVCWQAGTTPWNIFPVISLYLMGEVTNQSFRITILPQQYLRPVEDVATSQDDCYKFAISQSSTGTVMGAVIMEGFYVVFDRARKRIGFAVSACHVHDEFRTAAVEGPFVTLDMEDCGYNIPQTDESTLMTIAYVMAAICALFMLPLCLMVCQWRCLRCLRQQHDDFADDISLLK
human liver Cathepsin D, sequence (P07339 65-412): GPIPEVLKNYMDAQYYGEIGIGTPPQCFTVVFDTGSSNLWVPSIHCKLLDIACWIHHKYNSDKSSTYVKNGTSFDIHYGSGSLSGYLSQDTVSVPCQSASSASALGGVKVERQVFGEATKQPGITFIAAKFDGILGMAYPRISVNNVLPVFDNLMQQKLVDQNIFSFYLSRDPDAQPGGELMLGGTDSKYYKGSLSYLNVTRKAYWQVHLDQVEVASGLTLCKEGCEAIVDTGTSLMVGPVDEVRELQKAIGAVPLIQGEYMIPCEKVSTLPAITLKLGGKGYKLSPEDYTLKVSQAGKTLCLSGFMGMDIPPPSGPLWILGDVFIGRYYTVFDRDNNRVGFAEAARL
human liver Cathepsin D, sequence (P07339 169-412): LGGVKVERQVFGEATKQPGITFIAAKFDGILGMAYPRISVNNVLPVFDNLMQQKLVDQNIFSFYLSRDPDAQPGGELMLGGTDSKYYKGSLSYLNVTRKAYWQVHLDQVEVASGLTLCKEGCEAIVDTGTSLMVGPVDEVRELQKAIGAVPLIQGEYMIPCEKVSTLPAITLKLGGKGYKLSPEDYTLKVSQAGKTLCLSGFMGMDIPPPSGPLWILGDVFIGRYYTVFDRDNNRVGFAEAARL
CYP2C9, sequence (P11712 whole entry): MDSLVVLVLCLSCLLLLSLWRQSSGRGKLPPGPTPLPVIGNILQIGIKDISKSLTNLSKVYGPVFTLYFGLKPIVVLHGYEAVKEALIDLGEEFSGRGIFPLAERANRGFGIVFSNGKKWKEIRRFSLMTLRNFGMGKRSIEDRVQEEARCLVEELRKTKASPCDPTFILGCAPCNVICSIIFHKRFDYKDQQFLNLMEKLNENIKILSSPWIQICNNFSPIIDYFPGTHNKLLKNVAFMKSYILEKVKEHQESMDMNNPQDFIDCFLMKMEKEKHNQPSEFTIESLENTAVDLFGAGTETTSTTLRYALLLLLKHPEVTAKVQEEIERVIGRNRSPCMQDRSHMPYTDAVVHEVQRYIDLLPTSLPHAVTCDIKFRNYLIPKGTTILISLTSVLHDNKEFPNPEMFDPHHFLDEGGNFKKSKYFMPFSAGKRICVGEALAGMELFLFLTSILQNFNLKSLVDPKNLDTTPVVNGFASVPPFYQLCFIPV
CYP2D6, sequence (P10635 whole entry): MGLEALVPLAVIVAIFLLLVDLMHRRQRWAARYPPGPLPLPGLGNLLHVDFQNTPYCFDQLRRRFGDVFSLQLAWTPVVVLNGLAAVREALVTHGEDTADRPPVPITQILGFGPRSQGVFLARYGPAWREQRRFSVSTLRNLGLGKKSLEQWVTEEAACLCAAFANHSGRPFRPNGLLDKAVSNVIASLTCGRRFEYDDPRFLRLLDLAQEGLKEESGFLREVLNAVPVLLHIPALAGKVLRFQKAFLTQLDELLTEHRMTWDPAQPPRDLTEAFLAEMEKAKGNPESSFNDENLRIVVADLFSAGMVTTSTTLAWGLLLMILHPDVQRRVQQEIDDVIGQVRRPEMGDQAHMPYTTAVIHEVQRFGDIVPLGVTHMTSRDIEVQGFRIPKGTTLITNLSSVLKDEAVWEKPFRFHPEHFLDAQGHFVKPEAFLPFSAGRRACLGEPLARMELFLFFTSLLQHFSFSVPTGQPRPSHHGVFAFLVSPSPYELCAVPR
soluble human BACE1 catalytic domain, sequence (P56817 75-416): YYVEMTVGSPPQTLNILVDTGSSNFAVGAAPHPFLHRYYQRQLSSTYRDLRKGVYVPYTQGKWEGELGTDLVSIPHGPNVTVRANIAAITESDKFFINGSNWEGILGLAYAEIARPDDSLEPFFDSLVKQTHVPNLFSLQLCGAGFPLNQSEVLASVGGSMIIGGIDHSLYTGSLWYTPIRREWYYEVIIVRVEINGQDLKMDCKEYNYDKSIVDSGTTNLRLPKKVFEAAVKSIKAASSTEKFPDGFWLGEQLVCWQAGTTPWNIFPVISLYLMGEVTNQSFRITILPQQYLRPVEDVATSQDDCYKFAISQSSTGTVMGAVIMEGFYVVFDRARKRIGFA

Ki [1] [µM]	IC50 [2] [µM]	IC50 [3, 9] [µM]	IC50 [3, 10] [µM]	IC50 [4, 11] [µM]	IC50 [4, 12] [µM]	IC50 [5, 13] [µM]	IC50 [5, 14] [µM]	CathD Selectivity [7]	Compound	inhibition at 30 min, 1.5 uG/mL [6] [%]	inhibition at 30 min, 5 uG/mL [6] [%]	inhibition at 5 min, 1 uM [8] [%]	inhibition at 5 min, 10 uM [8] [%]
0.064	0.114	~30	23.3	> 30	> 30	> 30	> 30	–	Cc1nc(N2C[C@H]3C(=O)N(C)C(=N)N[C@@]3(c3ccc(F)cc3)C2)nc(C)c1F [Example 28]	13	14	–	–
0.0056	0.086	> 20	> 20	> 20	> 20	> 20	> 20	88	COc1nc(N2C[C@H]3C(=O)N(C)C(=N)N[C@@]3(c3cc(F)ccc3F)C2)nc(C2CC2)c1F [Example 34]	–	–	7	65
0.0056	0.018	> 20	> 20	> 20	> 20	> 20	~20	53	CCc1nc(N2C[C@H]3C(=O)N(C)C(=N)N[C@@]3(c3cc(F)c(F)cc3F)C2)nc(OC)c1F [Example 22]	–	–	35	96
0.0056	0.066	> 30	> 30	18.6	> 30	~30	~30	386	COc1nc(N2C[C@H]3C(=O)N(C)C(=N)N[C@@]3(c3cc(F)ccc3F)C2)nc(OC)c1F [Example 9]	–	–	12	71
0.014	0.063	> 20	> 20	> 20	> 20	> 20	> 20	1202	COc1nc(N2C[C@H]3C(=O)N(C)C(=N)N[C@@]3(c3cccc(C#N)c3)C2)nc(C)c1F [Example 36]	–	–	3	37
0.016	0.021	> 20	> 20	> 20	> 20	> 20	> 20	116	COc1nc(N2C[C@H]3C(=O)N(C)C(=N)N[C@@]3(c3ccc(F)cc3F)C2)nc(CO)c1F [Example 43]	–	–	6	27
0.0069	0.031	> 20	> 20	> 20	> 20	> 20	> 20	596	CCc1nc(N2C[C@H]3C(=O)N(C)C(=N)N[C@@]3(c3cc(F)ccc3F)C2)nc(OC)c1F [Example 31]	–	–	21	88
–	–	> 30	> 30	–	–	> 30	> 30	–	COc1nc(N2C[C@H]3C(=O)N(C)C(N)=N[C@@]3(c3c(F)cc(F)c(F)c3F)C2)nc(C)c1F [Example 29]	-4	3	–	–
0.0045	0.0095	> 20	> 20	8.3	> 20	8.9	7.5	106	COc1nc(N2C[C@H]3C(=O)N(C)C(=N)N[C@@]3(c3ccc(F)cc3Cl)C2)nc(C)c1F [Example 20]	–	–	29	93
0.0092	0.04	> 20	> 20	> 20	> 20	> 20	> 20	221	COc1nc(N2C[C@H]3C(=O)N(C)C(=N)N[C@@]3(c3ccc(F)c(Cl)c3F)C2)nc(C)c1F (racemic) [39 racemic]	–	–	3	61

Source: patent US8541427B2, “Phenyl-substituted 2-imino-3-methyl pyrrolo pyrimidinone compounds as BACE-1 inhibitors, compositions, and their use” (Merck, Sharp & Dohme, Corp., priority 2008, dated 2013)
